Reference: patent publication US8003691B2, “Antiviral and comma antibacterial pharmaceutical compositions of cantharidic anhydride and method of preparation thereof” (priority 2001, dated 2011)

What was measured:
tubercule bacillus [1] = assay type: cell-based
staphylococcus = assay type: cell-based
virus = experiment: Minimum concentration for virus deactivation; assay type: cell-based
[2] = human, in vivo
[3] = Solubility of cantharidic anhydride in water, fat and essential oil; assay type: physicochemical
Method: In the pharmaceutical composition of the present invention, cantharidic anhydride is dissolved in essential oils or single constituent of essential oils to form cantharidic anhydride-essential oil preparation. The cantharidic anhydride has higher solubility in essential oil. […] That is to say, concentration of cantharidic anhydride in essential oil can be 14 times larger than that in fat and more than 200 time larger than that in water.

tubercule bacillus [4] = conditions: reported in literature; cited from earlier work

Structure (SMILES)	concentration in culture medium that can completely deactivate tubercule bacillus (tubercule bacillus [1])	concentration in culture medium that can completely deactivate staphylococcus (staphylococcus)	minimum concentration for virus deactivation (virus)	adverse reaction to liver and bone marrow [2]	concentration of cantharidic anhydride in essential oil relative to that in fat ([3]; essential oil vs fat)	concentration of cantharidic anhydride in essential oil relative to that in water ([3]; essential oil vs water)	solubility in essential oil ([3]; in essential oil)	solubility in fat ([3]; in fat)	solubility of cantharidic anhydride in water ([3]; in water)	minimum concentration for tubercule bacillus deactivation (tubercule bacillus [4])
C[C@@]12C(=O)OC(=O)[C@]1(C)[C@H]1CC[C@@H]2O1 [cantharidic anhydride, Cantharidic anhydride]	0.01 ppm	0.01 ppm	0.000132 ppm	does not have adverse reaction to liver and bone marrow	14 times	more than 200 time	≤ 0.7%	0.05%	approximately 0.003%	–
[H]/N=C(/N)N[C@H]1[C@H](O)[C@@H](O)[C@H](O[C@@H]2O[C@@H](C)[C@](O)(C=O)[C@H]2O[C@@H]2O[C@@H](CO)[C@H](O)[C@@H](O)[C@@H]2NC)[C@@H](N/C(N)=N\[H])[C@@H]1O [streptomycin]	–	–	–	–	–	–	–	–	–	10 ppm
